Values after ≈ are worked out from the molar mass of the structure shown.

5 compounds from patent US6262094A (priority 1999, dated 2001) can be followed below.

Holding throughout (type): cell-based
Experiment [1] relates to KB-3.1 (DSM ACC 158), human cervix carcinoma. The following applies: KB 3-1, 120 h, KB-3.1, incubation period of 5 days, MTT.
Experiment [2] deals with PC-3 (ATCC CRL 1435), human prostate adenocarcinoma. The conditions noted are these: 120 h, PC-3, incubation period of 5 days, MTT.
The test system of experiment [3] is SK-OV-3 (ATCC HTB-77), human ovary adenocarcinoma. The following applies: 120 h, SK-OV-3, incubation period of 5 days, MTT.
The subject of experiment [4] is U-937 (DSM ACC 5), human histiocytic lymphoma. Kind of experiment: Growth inhibition, WST-1 reduction in microtiter plates. The conditions noted are these: 120 h, U-937, incubation period of 5 days, read-out: IC50 K-562/U-937 leukemia.
Experiment [5] concerns A-549 (DSM ACC 107), human lung carcinoma. The following applies: A549, 120 h, A-549, incubation period of 5 days, MTT.
The test system of experiment [6] is K-562 (ATCC CCL-243), human chronic myelogenous leukemia. Briefly: Growth inhibition, WST-1 reduction in microtiter plates. The conditions noted are these: K562, 120 h, K-562, incubation period of 5 days, read-out: IC50 K-562/U-937 leukemia. In general terms: Tetrazolium assays rely on reduction of a dye to a coloured formazan, in cell work by metabolically active cells.

In the case of `C=Cc1nc(/C=C(\C)[C@@H]2C[C@@H]3O[C@@H]3CCC[C@H](C)[C@H](O)[C@@H](C)C(=O)C(C)(C)[C@@H](O)CC(=O)O2)cs1` [20-vinyl-epo A, [1S-[1R*,3R*(E),7R*,10S*,11R*,12R*,16S*]]-3-[2-(2-Ethenyl-4-thiazolyl)-1-methylethenyl]-7,11-dihydroxy-8,8,10,12-tetramethyl-4,17-dioxabicyclo[14.1. 0]heptadecane-5,9-dione], the IC50 stood at 3 ng/mL (≈ 5.93 nM) in experiment [1], 0.4 ng/mL (≈ 0.791 nM) in experiment [2], 1 ng/mL (≈ 1.98 nM) in experiment [3] and 1.5 ng/mL (≈ 2.97 nM) in experiment [4].
With `C/C(=C\c1csc(CN)n1)[C@@H]1C[C@@H]2O[C@]2(C)CCC[C@H](C)[C@H](O)[C@@H](C)C(=O)C(C)(C)[C@@H](O)CC(=O)O1` [21-amino-epo B, [1S-[1R*,3R*(E),7R*,10S*,11R*,12R*,16S*]]-3-[2-[2-(Aminomethyl)-4-thiazolyl]-1-methylethenyl]-7,11-dihydroxy-8,8,10,12,16-pentamethyl-4,17-dioxabicyclo[14.1.0]heptadecane-5,9-dione], the IC50 is 0.4 ng/mL (≈ 0.765 nM) in experiment [1] and 1.5 ng/mL (≈ 2.87 nM) in experiment [2].
On to `C/C(=C\c1csc(CCl)n1)[C@@H]1C[C@@H]2O[C@@H]2CCC[C@H](C)[C@H](O)[C@@H](C)C(=O)C(C)(C)[C@@H](O)CC(=O)O1` [21-chloro-epo A], for which the IC50 came out at 60 ng/mL (≈ 114 nM) in experiment [1], 10 ng/mL (≈ 18.9 nM) in experiment [5] and 12 ng/mL (≈ 22.7 nM) in experiment [6].
Turning to `C/C(=C\c1csc(CN=[N+]=[N-])n1)[C@@H]1C[C@@H]2O[C@]2(C)CCC[C@H](C)[C@H](O)[C@@H](C)C(=O)C(C)(C)[C@@H](O)CC(=O)O1` [21-azido-epo B, [1S-[1R*,3R* (E),7R*, 10S*,11R*,12R*,16S*]]-3-[2-[2-(Azidomethyl)-4-thiazolyl]-1-methylethenyl]-7,11-dihydroxy-8,8,10,12,16-pentamethyl-4,17-dioxabicyclo[14.1. 0]heptadecane-5,9-dione], the IC50 worked out at 0.5 ng/mL (≈ 0.911 nM) in experiment [1] and 0.4 ng/mL (≈ 0.729 nM) in experiment [2].
As for `C/C(=C\c1csc(CN)n1)[C@@H]1C[C@@H]2O[C@@H]2CCC[C@H](C)[C@H](O)[C@@H](C)C(=O)C(C)(C)[C@@H](O)CC(=O)O1` [21-amino-epo A], the IC50 in experiment [1] is 4 ng/mL (≈ 7.86 nM); in experiment [2] it was 3 ng/mL (≈ 5.9 nM); in experiment [3], 4 ng/mL (≈ 7.86 nM); in experiment [4], 3 ng/mL (≈ 5.9 nM).
